pEC50: −log10 of the molar value.
Test system: panel of cancer cell lines
Assay: Cell viability (CellTiter-Glo) dose-response across cancer cell line panel;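 note: after 72 h compound incubation with CellTiter-Glo ATP readout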
Type: cell-based, human
Settings: Homo sapiens
Excerpt: Next, we explored the effect of CSN5 inhibition on the viability of cancer cells. To obtain a comprehensive picture, we generated dose–response curves with a CSN5 inhibitor across more than 500 cancer cell lines in a previously described standardized setting[47] (Supplementary Data 1).
A standardized CellTiter-Glo Assay (Promega #G7570) based on the quantification of ATP was applied according to the manufacturer's protocol to measure the amount of viable cells in culture. In brief, cells were seeded into 384-well plates at optimal density for each cell line. After 4 h, compounds were added at different concentrations in growth medium and incubated for another 72 h in a humidifying chamber at 37 °C and 5% CO2. […] EC50 values were calculated from the plot of percentage of inhibition versus inhibitor concentration using the nonlinear regression analysis software Origin 7.5SR6 (OriginLab Corp.).

Q: With NS(=O)(=O)OC[C@@H]1C[C@@H](n2ccc3c(N[C@H]4CCc5ccccc54)ncnc32)C[C@@H]1O [MLN4924] as the compound, how does the pEC50 (MOLT-16, MOLT-16) read?
A: 6.87

Q: What about the pEC50 (MSTO-211H) of the same compound?
A: 6.44

Q: What about the pEC50 (MV4-11, MV-4-11) of the same compound?
A: 7.13

Q: And the pEC50 (Malme-3M)?
A: 6.28

Q: And the pEC50 (MeWo)?
A: 6.55

Q: And the pEC50 (Mono-Mac-1, MONO-MAC-1)?
A: 6.63

Q: And the pEC50 (NALM-6, NALM-6)?
A: 6.36

Q: And the pEC50 (NB1, NB-1)?
A: 6.67

Q: What about the pEC50 (NB-4, NB-4) of the same compound?
A: 7.22

Q: What about the pEC50 (NCI-H23, NCI-H23) of the same compound?
A: 6.27

Q: What about the pEC50 (NCI-H28, NCI-H28) of the same compound?
A: 4.97

Q: What about the pEC50 (NCI-H82, NCI-H82) of the same compound?
A: 7.05

Q: And the pEC50 (NCI-H146, NCI-H146)?
A: 6.62

Q: And the pEC50 (NCI-H211, NCI-H211)?
A: 5.55

Q: What about the pEC50 (NCI-H322, NCI-H322) of the same compound?
A: 6.12

Q: What about the pEC50 (NCI-H460, NCI-H460) of the same compound?
A: 5.84

Q: And the pEC50 (NCI-H520, NCI-H520)?
A: 5.39

Q: And the pEC50 (NCI-H647, NCI-H647)?
A: 5.49

Q: What about the pEC50 (NCI-H650, NCI-H650) of the same compound?
A: 6.37

Q: What about the pEC50 (NCI-H661, NCI-H661) of the same compound?
A: 6.76

Q: And the pEC50 (NCI-H747, NCI-H747)?
A: 5.63

Q: And the pEC50 (NCI-H810, NCI-H810)?
A: 7.58

Q: What about the pEC50 (NCI-H838, NCI-H838) of the same compound?
A: 6.59

Q: And the pEC50 (NCI-H841, NCI-H841)?
A: 6.69

Q: What about the pEC50 (NCI-H1048, NCI-H1048) of the same compound?
A: 7.10

Q: What about the pEC50 (NCI-H1299, NCI-H1299) of the same compound?
A: 6.34

Q: What about the pEC50 (NCI-H1339, NCI-H1339) of the same compound?
A: 7.17

Q: And the pEC50 (NCI-H1341)?
A: 7.06

Q: What about the pEC50 (NCI-H1355, NCI-H1355) of the same compound?
A: 6.15

Q: What about the pEC50 (NCI-H1373, NCI-H1373) of the same compound?
A: 6.18

Q: What about the pEC50 (NCI-H1437, NCI-H1437) of the same compound?
A: 5.55

Q: And the pEC50 (NCI-H1568, NCI-H1568)?
A: 6.17

Q: What about the pEC50 (NCI-H1581, NCI-H1581) of the same compound?
A: 6.53

Q: And the pEC50 (NCI-H1650, NCI-H1650)?
A: 5.23

Q: What about the pEC50 (NCI-H1666, NCI-H1666) of the same compound?
A: 5.64

Q: And the pEC50 (NCI-H1693, NCI-H1693)?
A: 6.27

Q: And the pEC50 (NCI-H1703, NCI-H1703)?
A: 7.49

Q: And the pEC50 (NCI-H1755, NCI-H1755)?
A: 5.48

Q: What about the pEC50 (NCI-H1792, NCI-H1792) of the same compound?
A: 5.10

Q: And the pEC50 (NCI-H1915, NCI-H1915)?
A: 5.94

Q: And the pEC50 (NCI-H1975, NCI-H1975)?
A: 5.57

Q: And the pEC50 (NCI-H2023, NCI-H2023)?
A: 6.43

Q: What about the pEC50 (NCI-H2030, NCI-H2030) of the same compound?
A: 6.40

Q: What about the pEC50 (NCI-H2073, NCI-H2073) of the same compound?
A: 6.40

Q: And the pEC50 (NCI-H2087, NCI-H2087)?
A: 6.31

Q: What about the pEC50 (NCI-H2110, NCI-H2110) of the same compound?
A: 6.62

Q: And the pEC50 (NCI-H2122, NCI-H2122)?
A: 6.47

Q: What about the pEC50 (NCI-H2126, NCI-H2126) of the same compound?
A: 4.82

Q: And the pEC50 (NCI-H2170, NCI-H2170)?
A: 6.48

Q: What about the pEC50 (NCI-H2172, NCI-H2172) of the same compound?
A: 4.97

Q: And the pEC50 (NCI-H2228, NCI-H2228)?
A: 5.88

Q: What about the pEC50 (NCI-H2286, NCI-H2286) of the same compound?
A: 6.92

Q: What about the pEC50 (NCI-H2444, NCI-H2444) of the same compound?
A: 6.38

Q: What about the pEC50 (NCI-H2452, NCI-H2452) of the same compound?
A: 5.74

Q: And the pEC50 (NCI-H3255, NCI-H3255)?
A: < 4.52

Q: And the pEC50 (NCI-N87, NCI-N87)?
A: 5.53

Q: What about the pEC50 (NO36) of the same compound?
A: 6.06

Q: And the pEC50 (NOMO-1, NOMO-1)?
A: 6.86

Q: What about the pEC50 (NUGC-3, NUGC-3) of the same compound?
A: 6.03

Q: And the pEC50 (OCI-AML-3, OCI-AML3)?
A: 7.03

Q: What about the pEC50 (OCI-AML-5, OCI-AML5) of the same compound?
A: 6.62

Q: What about the pEC50 (OCI-Ly3, OCI-LY3) of the same compound?
A: 6.95

Q: What about the pEC50 (OCI-M1, OCI-M1) of the same compound?
A: 7.46

Q: What about the pEC50 (OUMS-23, OUMS-23) of the same compound?
A: 6.01

Q: What about the pEC50 (OV56, OV56) of the same compound?
A: 6.41

Q: And the pEC50 (OVCAR-3, NIH:OVCAR-3)?
A: 6.52

Q: What about the pEC50 (OVCAR-4, OVCAR-4) of the same compound?
A: 6.10

Q: What about the pEC50 (OVISE) of the same compound?
A: 6.10

Q: And the pEC50 (P3HR-1, P3HR-1)?
A: 6.55

Q: What about the pEC50 (P12-Ichikawa) of the same compound?
A: 6.68

Q: And the pEC50 (P31-FUJ, P31/FUJ)?
A: 6.55

Q: What about the pEC50 (PANC-1, PANC-1) of the same compound?
A: 5.41

Q: And the pEC50 (PANC-03-27, Panc 03.27)?
A: 6.40

Q: And the pEC50 (PC-3, PC-3)?
A: 6.24

Q: And the pEC50 (PC-14, PC-14)?
A: 6.05

Q: And the pEC50 (PE/CA-PJ34 (clone C12))?
A: 7.06

Q: And the pEC50 (PE/CA-PJ49)?
A: 6.53

Q: And the pEC50 (PF-382, PF-382)?
A: 6.67

Q: And the pEC50 (PK-1, PK-1)?
A: 5.86

Q: What about the pEC50 (PK-45H) of the same compound?
A: 5.79

Q: And the pEC50 (PK-59, PK-59)?
A: 5.69

Q: And the pEC50 (PL45, PL45)?
A: 6.52

Q: And the pEC50 (PL-21, PL-21)?
A: 6.86

Q: What about the pEC50 (PLC-PRF-5, PLC/PRF/5) of the same compound?
A: 5.42

Q: And the pEC50 (PSN1, PSN1)?
A: 5.92

Q: And the pEC50 (PaTu 8902, PA-TU-8902)?
A: 6.05

Q: What about the pEC50 (PaTu 8988s, PA-TU-8988S) of the same compound?
A: 4.91

Q: What about the pEC50 (PaTu 8988t, PA-TU-8988T) of the same compound?
A: 6.05

Q: And the pEC50 (Panc 02.03, Panc 02.03)?
A: 5.46

Q: And the pEC50 (Panc 04.03, Panc 04.03)?
A: 6.61

Q: And the pEC50 (Panc1005, Panc 10.05)?
A: 6.43

Q: And the pEC50 (RCM-1, RCM-1)?
A: 5.05

Q: What about the pEC50 (RD) of the same compound?
A: 6.14

Q: And the pEC50 (RD-ES)?
A: 6.79

Q: And the pEC50 (RERF-LC-AI)?
A: 6.36

Q: And the pEC50 (RERF-LC-MS)?
A: 6.14

Q: And the pEC50 (RKN)?
A: 6.47

Q: And the pEC50 (RKO)?
A: 6.79

Q: And the pEC50 (RMUG-S)?
A: 5.38

Q: And the pEC50 (RPMI 8402, RPMI-8402)?
A: 7.04

Q: What about the pEC50 (RPMI-7951, RPMI-7951) of the same compound?
A: 5.99

Q: And the pEC50 (RT-112, RT-112)?
A: 6.07

Q: And the pEC50 (RVH-421, RVH-421)?
A: 6.14

Q: And the pEC50 (Rh41, RH-41)?
A: 7.49

Q: And the pEC50 (SCC-25, SCC-25)?
A: 6.25

Q: And the pEC50 (SCaBER)?
A: 5.45

Q: And the pEC50 (SEM)?
A: 6.31

Q: What about the pEC50 (SF8657) of the same compound?
A: < 4.52

Q: What about the pEC50 (SF-268, SF-268) of the same compound?
A: 6.33

Q: What about the pEC50 (SH-4, SH-4) of the same compound?
A: 6.83

Q: And the pEC50 (SH-10-TC)?
A: 4.72

Q: What about the pEC50 (SH-SY5Y) of the same compound?
A: 6.25

Q: What about the pEC50 (SJRH30, SJRH30) of the same compound?
A: 7.14

Q: What about the pEC50 (SK-CO-1, SK-CO-1) of the same compound?
A: 6.59

Q: What about the pEC50 (SK-ES1, SK-ES-1) of the same compound?
A: 6.75

Q: What about the pEC50 (SK-HEP1, SK-HEP-1) of the same compound?
A: 6.42

Q: What about the pEC50 (SK-LU-1, SK-LU-1) of the same compound?
A: 6.04

Q: What about the pEC50 (SK-MEL3, SK-MEL-3) of the same compound?
A: 6.14

Q: And the pEC50 (SK-MEL-2, SK-MEL-2)?
A: 6.43

Q: What about the pEC50 (SK-MEL-5, SK-MEL-5) of the same compound?
A: 6.26

Q: And the pEC50 (SK-MEL-28, SK-MEL-28)?
A: 6.22

Q: And the pEC50 (SK-MEL-30, SK-MEL-30)?
A: 6.38

Q: And the pEC50 (SK-MES-1, SK-MES-1)?
A: 6.14

Q: And the pEC50 (SK-N-SH)?
A: 5.94

Q: And the pEC50 (SK-OV-3, SK-OV-3)?
A: 5.84

Q: And the pEC50 (SKM-1, SKM-1)?
A: 7.07

Q: And the pEC50 (SKNBE2, SK-N-BE(2))?
A: 6.48

Q: What about the pEC50 (SNB-19, SNB-19) of the same compound?
A: 6.20

Q: What about the pEC50 (SNG-M) of the same compound?
A: 6.60

Q: What about the pEC50 (SNU668, SNU-668) of the same compound?
A: 5.82

Q: What about the pEC50 (SNU878, SNU-878) of the same compound?
A: 6.13

Q: And the pEC50 (SNU-8)?
A: 6.26

Q: And the pEC50 (SNU-16, SNU-16)?
A: 6.57

Q: What about the pEC50 (SNU-61) of the same compound?
A: 4.72

Q: And the pEC50 (SNU-81)?
A: 6.76

Q: And the pEC50 (SNU-175)?
A: 6.50

Q: And the pEC50 (SNU-213)?
A: 5.68

Q: And the pEC50 (SNU-324)?
A: 6.16

Q: And the pEC50 (SNU-349)?
A: 6.50

Q: And the pEC50 (SNU-387, SNU-387)?
A: 5.41

Q: What about the pEC50 (SNU-398, SNU-398) of the same compound?
A: 6.53

Q: What about the pEC50 (SNU-410) of the same compound?
A: 6.46

Q: What about the pEC50 (SNU-423, SNU-423) of the same compound?
A: 6.21

Q: And the pEC50 (SNU-449, SNU-449)?
A: 5.45

Q: And the pEC50 (SNU-475, SNU-475)?
A: 5.64

Source: article PMC5078989, “Targeted inhibition of the COP9 signalosome for treatment of cancer” (Nature Communications, 2016)
